{"source": "patent US20220339135A1", "about": "“COMPOSITIONS AND METHODS FOR MODULATING AN INFLAMMATORY RESPONSE” (Enzychem Lifesciences Corporation, priority 2019, published 2022)", "key": {"[1]": {"tested_on": "HMGB1, S100A8, S100A9, LDH in supernatant of THP-1 cells", "assay": "MSU-induced DAMP and LDH release", "format": "cell-based, human", "conditions": "PLAG 100 μg/ml, MSU 400 μg/ml", "method": "THP-1 cells were divided into two groups: 1) MSU treated group and 2) MSU/PLAG treated group. For MSU treated group, THP-1 cells were stimulated with monosodium urate (MSU) crystal (400 μg/ml) for 0, 15, 30, 60 minutes. For MSU/PLAG treated group, THP-1 cells were pre-incubated with PLAG (100 μg/ml) for 1 hour and then stimulated with monosodium urate (MSU) crystal (400 μg/ml) for 0, 15, 30, 60 minutes. Then, cells were centrifuged, and the supernatant was harvested. Add 50 μL 5×SDS sample buffer to 200 μL supernatant of THP-1 cells. Proteins from each sample were separated by sodium dodecyl sulfate (SDS)-polyacrylamide gel electrophoresis on 8% polyacrylamide gels and the proteins were blotted onto a PVDF membrane (Millipore Corporation, Germany). The membrane was blocked with 5% non-fat dried milk (BD bioscience) in PBS containing 0.05% Tween-20 (Calbiochem) for 1 hour. The membrane was incubated with anti-high mobility group box 1 (HMGB1) (abcam), anti-S100A9 (abcam) at 4° C. overnight. After washing with PBS containing 0.05% Tween-20, the membrane was stained with goat anti-rabbit IgG peroxidase (ENZO). Target proteins were detected with Immobilon Western Chemiluminescent HRP Substrate (Millipore Corporation). Lactate dehydrogenase (LDH) of Supernatant was measured using the LDH assay kit."}, "skin erythema injury": {"tested_on": "skin erythema injury", "assay": "Radiation-induced skin erythema in mice", "format": "in vivo", "conditions": "8Gy TBI, PLAG 250 mg/kg daily 17 days", "method": "9 weeks Balb/c mice were divided into two groups: 1) radiated group (8Gy of TBI by γ-ray) and 2) PLAG (250 mg/kg of PLAG daily for 17 days) administrated group with radiation (8Gy of TBI) (FIG. 38A)."}, "[2]": {"tested_on": "lysosomal activity in THP-1 cells", "assay": "MSU-induced lysosomal activity", "format": "cell-based, human", "conditions": "MSU/PLAG treated cells", "method": "THP-1 cells were divided into two groups: 1) MSU treated group and 2) MSU/PLAG treated group. For MSU treated group, THP-1 cells were stimulated with monosodium urate (MSU) crystal (400 μg/ml) for 0, 10, 20, 30, 40, 50, 60 minutes. For MSU/PLAG treated group, THP-1 cells were pre-incubated with PLAG (100 μg/ml) for an hour and then stimulated with monosodium urate (MSU) crystal (400 μg/ml) for 0, 10, 20, 30, 40, 50, 60 minutes. Then, cells were harvested. (A) To detect for the P2Y6 receptor on the membrane surface, cells were fixed with 4% paraformaldehyde (Sigma-Aldrich) and incubated with PBS containing 1% BSA for blocking. They were labeled with the rabbit anti-P2Y6 receptor antibody (1:200, APR-011, Alomone Labs, Jerusalem, Israel) for 1 h. The detection Ab was used with Alexa Flour 488 goat anti-rabbit IgG (Invitrogen). (B) To detect lysosomal activity, THP-1 cells were stained with Texas red conjugated-LYSO-ID® Lysosomal Detection Kit (Enzo Life Sciences, Inc.). Finally, cells were washed with 1% FBS/PBS and mounted with DAPI-containing fluorescence microscopy mounting medium (Invitrogen). Confocal samples were analyzed with a laser scanning confocal microscope (Carl Zeiss, Oberkochen, Germany). For flow cytometric analysis, cells were washed and analyzed with a FACSVerse flow cytometer (BD Biosciences). FlowJo software (Tree Star, OR, USA) was used data processing."}, "[3]": {"tested_on": "TLR4/MD2 on the surface of Raw264.7 cells", "assay": "LPS-induced TLR4/MD2 internalization, confocal microscopy", "format": "cell-based", "conditions": "LPS/PLH compared to LPS treated cells", "method": "Raw264.7 cells were divided into two groups: 1) LPS treated group and 2) LPS/PLAG treated group. For LPS treated group, cells were stimulated with LPS (100 ng/ml) for 0, 15, 30, 45, 60, 75, 90, 105, 120 minutes. For LPS/PLAG treatment, cells were pre-incubated with PLAG (100 μg/ml) for 1 hour and then stimulated with LPS (100 ng/ml) for 0, 15, 30, 45, 60, 75, 90, 105, 120 minutes. To detect TLR4/MD2 on the membrane surface, cells were fixed with 2% paraformaldehyde (Sigma-Aldrich) and were blocked with PBS containing 1% BSA (Gibco, Waltham, Mass., USA). They were incubated with rabbit anti-TLR4/MD2 antibody (Thermo) and Alexa488 conjugated anti-rabbit IgG (Invitrogen). For confocal microscopy analysis, cells were washed with PBS and mounted in DAPI-containing fluorescence microscopy mounting medium (Invitrogen). Samples were analyzed with a laser scanning confocal microscope (Carl Zeiss, Oberkochen, Germany).\nRaw264.7 cells were divided into two groups: 1) LPS treated group and 2) LPS/PLAG treated group. […] These were analyzed by confocal microscopy. […]\nTo detect TLR4/MD2 on the membrane surface, cells were fixed with 2% paraformaldehyde (Sigma-Aldrich) and were blocked with PBS containing 1% BSA (Gibco, Waltham, Mass., USA). […] For confocal microscopy analysis, cells were washed with PBS and mounted in DAPI-containing fluorescence microscopy mounting medium (Invitrogen). […]"}}, "data": [{"smiles": "CCCCC/C=C\\C/C=C\\CCCCCCCC(=O)OC(COC(C)=O)COC(=O)CCCCCCCCCCCCCCC", "note": "(racemic) [PLAG, 1-palmitoyl-2-linoleoyl-3-acetylglycerol]", "values": [{"measurement": "release of MSU crystal-induced HMGB1, S100A8, S100A9 and LDH to the supernatant", "setting": "[1]", "result": "modulated the release"}, {"measurement": "erythema on mouse foot and tail", "setting": "skin erythema injury", "result": "significantly weak or no erythema"}, {"measurement": "lysosomal activity detected", "setting": "[2]", "result": "about 10 minutes"}, {"measurement": "lysosomal activity returned", "setting": "[2]", "result": "about 30 minutes"}]}, {"smiles": "CCCCC/C=C\\C/C=C\\CCCCCCCC(=O)OC(CO)COC(=O)CCCCCCCCCCCCCCC", "note": "(centres unmarked) [PLH, palmitic linoleic hydroxyl glycerol, reference compound]", "values": [{"measurement": "effect on TLR4/MD2 internalization and return to the surface", "setting": "[3]", "result": "had no effect"}]}]}
